Data reported in patent US12084434B2 (Scorpion Therapeutics, Inc., priority 2021, dated 2024).
Where two headings read alike, the source gives them in different places.

What was measured:
[1] = target: T1, PI3Kα H1047R protein (p110-α H1047R complexed with truncated p85-α) (Homo sapiens, UniProt P42336, H1047R); assay: Surface Plasmon Resonance (SPR) binding, wortmannin-blocked protein; conditions: Biacore 8K, ATP site blocked with 1 μM wortmannin, 25° C.
T1 construct: The protein contained a full-length p110-α subunit harboring the H1047R mutation
Protocol: Surface Plasmon Resonance (SPR)
SPR experiments were performed on a Biacore 8K instrument. A biotinylated recombinant PI3Kα H1047R protein was used in this study. The protein contained a full-length p110-α subunit harboring the H1047R mutation with an N-terminal AviTag, complexed with a truncated p85-α subunit (amino acid residues 322-694). The protein was first incubated with 1 μM wortmannin for 30 min at RT to covalently block the ATP binding site, then immobilized onto a streptavidin sensor chip by flowing the protein through the sensor chip at typically 20 μg/mL concentration and 2 μL/min flow rate for 1200 seconds. Compound binding affinities were measured in the multi-cycle kinetics mode, at 90 μL/min flow rate with 90 seconds association time and 240 seconds dissociation time. The running buffer contained 50 mM Tris, pH 7.5, 150 mM NaCl, 0.01% Brij35, 1 mM DTT, 1 mM MgCl2, 0.05% Tween-20 and 2% DMSO. Temperature was maintained at 25° C. during experiments.

[2] = test system: T47D pAKT (S473), PI3Kα H1047R mutation present; assay: HTRF pAKT-T47D;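 also: assay medium was RPMI with 10% FBS and 0.2 units/ml bovine insulin, without phenol red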
Protocol: Homogenous Time-Resolved Fluorescence (HTRF)—pAKT-T47D
Compounds were assayed using homogeneous time-resolved fluorescence (HTRF).
Gibco RPMI 1640 Medium, no phenol red; Gibco RPMI 1640 Medium; Gibco Trypsin-EDTA (0.5%), no phenol red; Gibco DPBS; Trypan blue solution 0.4% (Corning); Avantor Seradigm Premium Grade Fetal Bovine Serum (FBS); Greiner 784080-384 well TC treated white plates; pAKT (Ser473) HTRF; Gibco Insulin, human recombinant, zinc solution; Gibco Recovery Cell Culture Freezing Medium; Countess II FL Automated Cell Counter (ThermoFisher); Countess II Slides (ThermoFisher); Microscope; and PHERAstar FSX Microplate Reader (BMG LABTECH, Inc.).
The scinamic cell line ID was T47D.1, the HTRF detection was pAKT (S473), a PI3Kα H1047R mutation was present, the seeding density was 5000, the timepoint was 1 hour, and the medium used was RPMI+10% FBS (no phenol red)+0.2 units/ml bovine insulin.
• The cell density was not permitted to reach 100% confluence. The cells were split 1:5 when they reached ˜80% confluence. • Cells were split twice a week (Mon and Fri). • Cells over passage 18 were not used (˜2 months of maintenance). • Antibiotics were not used for tissue culture maintenance or assays. […] Protocol Day1
The procedure was as follows: • 1. Prepared ARP: • a. Stamped 12.5 nL from 10 μmM source plate to destination plate using Echo. Sealed plate immediately and froze at −20° C. if it was not used on the same day. • b. If a frozen ARP was used, the plate was thawed and spun at 1000 rpm×1 min. • 2. Preparation of cells (adherent): • a. Aspirated media from cells. Washed cells with sterile 1XPBS. Aspirated PBS and added appropriate amount of Trypsin. • b. Once cells were fully trypsinized, added appropriate media to resuspend cells. Transferred cells to a 15 mL or 50 mL conical tube. • c. Counted cells on the Countess II Cell Counter. • 3. Plating of cells: • a. Prepared cells at appropriate plating density. Dispensed 12 μL of diluted cells per well of a Greiner 784080-384 well TC treated white plate using a Multidrop Combi to columns 1-23. Added 12 uL of appropriate phenol free media only to column 24. • b. Placed plates in 37° C. tissue culture incubator for appropriate treatment time (refer to “Assay” table). • 4. Prepared HTRF Lysis Buffer • a. Calculate the amount of HTRF lysis buffer master mix needed to perform the desired experiments plus any extra dead volume required for dispensing (4 μL required per well). […] Add 4 uL Lysis buffer master mix to all wells with sample or DMSO. Centrifuge the plates for 1 minute at 1000 rpm. • c. Incubate at room temperature for 30 minutes. • 5. Prepared HTRF Antibody • a.

[3] = read-out: T47D pAKT IC50, T47D.1 cells, pAKT (S473) HTRF, 1 hour
[4] = Homo sapiens, T47D, 1 h, read-out: T47D pAKT IC50 (nM), T47D.1 cells, pAKT (S473) HTRF, 1 hour

T1 sequence (P42336 whole entry H1047R, the tested form may be a part): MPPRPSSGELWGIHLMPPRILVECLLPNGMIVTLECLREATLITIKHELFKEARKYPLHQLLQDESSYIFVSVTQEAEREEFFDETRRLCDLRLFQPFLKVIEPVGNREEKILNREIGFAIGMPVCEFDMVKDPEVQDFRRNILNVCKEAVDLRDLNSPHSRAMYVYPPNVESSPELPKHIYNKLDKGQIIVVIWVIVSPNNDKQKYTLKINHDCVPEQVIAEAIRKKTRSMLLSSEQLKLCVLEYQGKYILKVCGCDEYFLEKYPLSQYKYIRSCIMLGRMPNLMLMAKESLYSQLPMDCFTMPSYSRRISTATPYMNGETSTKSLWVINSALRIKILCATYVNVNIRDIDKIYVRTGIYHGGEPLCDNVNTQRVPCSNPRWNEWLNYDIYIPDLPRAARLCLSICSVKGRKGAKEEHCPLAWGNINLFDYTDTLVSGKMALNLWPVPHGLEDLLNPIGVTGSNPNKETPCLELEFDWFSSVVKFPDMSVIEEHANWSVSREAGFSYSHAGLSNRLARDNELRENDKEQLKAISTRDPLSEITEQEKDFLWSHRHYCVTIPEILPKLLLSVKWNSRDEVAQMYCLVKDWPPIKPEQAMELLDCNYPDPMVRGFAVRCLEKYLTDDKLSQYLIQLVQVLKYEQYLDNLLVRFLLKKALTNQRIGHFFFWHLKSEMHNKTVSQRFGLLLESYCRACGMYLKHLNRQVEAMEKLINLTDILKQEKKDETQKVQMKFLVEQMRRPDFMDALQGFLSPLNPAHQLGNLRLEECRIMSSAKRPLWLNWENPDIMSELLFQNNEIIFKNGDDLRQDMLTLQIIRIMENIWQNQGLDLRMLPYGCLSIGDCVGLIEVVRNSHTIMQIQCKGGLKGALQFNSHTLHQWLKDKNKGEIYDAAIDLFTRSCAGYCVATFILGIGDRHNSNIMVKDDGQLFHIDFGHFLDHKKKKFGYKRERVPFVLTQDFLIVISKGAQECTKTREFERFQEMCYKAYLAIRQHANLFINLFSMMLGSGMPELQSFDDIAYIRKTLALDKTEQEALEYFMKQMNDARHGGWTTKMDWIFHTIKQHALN
T1 sequence (P27986 322-694 partner limits assumed): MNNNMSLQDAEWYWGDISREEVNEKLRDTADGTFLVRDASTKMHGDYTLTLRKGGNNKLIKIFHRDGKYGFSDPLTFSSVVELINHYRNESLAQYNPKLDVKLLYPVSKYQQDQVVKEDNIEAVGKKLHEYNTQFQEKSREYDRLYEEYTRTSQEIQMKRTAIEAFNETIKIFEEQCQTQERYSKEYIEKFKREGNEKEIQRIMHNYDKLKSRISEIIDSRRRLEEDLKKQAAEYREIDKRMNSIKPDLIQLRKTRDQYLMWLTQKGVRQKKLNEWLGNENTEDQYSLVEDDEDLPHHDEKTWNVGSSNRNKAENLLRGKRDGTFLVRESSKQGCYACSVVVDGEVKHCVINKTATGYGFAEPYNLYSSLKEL

Row | SMILES | Kd [1] [nM] | IC50 [2, 3] [nM] | IC50 [2, 4] [nM]
1 | Cc1c([C@@H](NC(=O)Nc2cnc(N)nc2)C(C)C)oc2ccc(F)cc12 [Compound 66, (S)-1-(2-aminopyrimidin-5-yl)-3-(1-(5-fluoro-3-methylbenzofuran-2-yl)-2-methylpropyl)urea] | < 100 | 1000 to 5000 | –
2 | Cc1c([C@@H](NC(=O)Nc2cccc(C(=O)N(C)C)c2)C(C)C)oc2ccc(F)cc12 [Compound 22, (S)-3-(3-(1-(5-fluoro-3-methylbenzofuran-2-yl)-2-methylpropyl)ureido)-N,N-dimethylbenzamide] | < 100 | – | 1000 to 5000
3 | Cc1c([C@@H](NC(=O)Nc2cccc(S(N)(=O)=O)c2)C(C)C)oc2ccc(F)cc12 [Compound 17, (S)-3-(3-(1-(5-fluoro-3-methylbenzofuran-2-yl)-2-methylpropyl)ureido)benzenesulfonamide] | 250 to 500 | – | –
4 | Cc1c([C@@H](NC(=O)Nc2cncc(C(=O)N3CCNCC3)c2)C(C)C)oc2ccc(F)cc12 [Compound 61, (S)-1-(1-(5-fluoro-3-methylbenzofuran-2-yl)-2-methylpropyl)-3-(5-(piperazine-1-carbonyl)pyridin-3-yl)urea] | 100 to 250 | – | 1000 to 5000
5 | Cc1c([C@@H](NC(=O)Nc2cnc(N3CC(F)C3)nc2)C(C)C)oc2ccc(F)cc12 [Compound 73, (S)-1-(1-(5-fluoro-3-methylbenzofuran-2-yl)-2-methylpropyl)-3-(2-(3-fluoroazetidin-1-yl)pyrimidin-5-yl)urea] | < 100 | – | < 1000
6 | Cc1c([C@@H](NC(=O)Nc2cncc(C(=O)N(C)C)c2)C(C)C)oc2ccc(F)cc12 [Compound 56, (S)-5-(3-(1-(5-fluoro-3-methylbenzofuran-2-yl)-2-methylpropyl)ureido)-N,N-dimethylnicotinamide] | < 100 | – | < 1000
7 | Cc1c([C@@H](NC(=O)Nc2cncc(C(N)=O)c2)C2CC2)oc2ccc(F)cc12 [Compound 45, (S)-5-(3-(cyclopropyl(5-fluoro-3-methylbenzofuran-2-yl)methyl)ureido)nicotinamide] | 100 to 250 | – | 1000 to 5000
8 | Cc1c([C@@H](NC(=O)Nc2cccc(C(N)=O)c2)C(C)C)oc2c(F)cc(F)cc12 [Compound 52, (S)-3-(3-(1-(5,7-difluoro-3-methylbenzofuran-2-yl)-2-methylpropyl)ureido)benzamide] | < 100 | – | < 1000
9 | Cc1c([C@@H](NC(=O)N[C@@H]2CCCN(S(C)(=O)=O)C2)C(C)C)oc2ccc(F)cc12 (single isomer, unassigned) [Compound 19] | ≥ 500 | – | –
10 | Cc1c([C@@H](NC(=O)Nc2ccc3c(c2)CNC3=O)C(C)C)oc2ccc(F)cc12 [Compound 33, (S)-1-(1-(5-fluoro-3-methylbenzofuran-2-yl)-2-methylpropyl)-3-(1-oxoisoindolin-5-yl)urea] | < 100 | – | < 1000
11 | COC(=O)N1CCC[C@H](NC(=O)N[C@H](c2oc3ccc(F)cc3c2C)C(C)C)C1 [Compound 55, methyl (S)-3-(3-((S)-1-(5-fluoro-3-methylbenzofuran-2-yl)-2-methylpropyl)ureido)piperidine-1-carboxylate] | ≥ 500 | – | –
12 | Cc1c([C@@H](NC(=O)Nc2cccnc2)C2CC2)oc2ccc(F)cc12 [Compound 37, (S)-1-(cyclopropyl(5-fluoro-3-methylbenzofuran-2-yl)methyl)-3-(pyridin-3-yl)urea] | ≥ 500 | – | > 5000
13 | Cc1c([C@@H](NC(=O)Nc2cnc(N3CC(F)(F)C3)nc2)C(C)C)oc2ccc(F)cc12 [Compound 72, (S)-1-(2-(3,3-difluoroazetidin-1-yl)pyrimidin-5-yl)-3-(1-(5-fluoro-3-methylbenzofuran-2-yl)-2-methylpropyl)urea] | < 100 | – | < 1000
14 | CNC(=O)c1cccc(NC(=O)N[C@H](c2oc3ccc(F)cc3c2C)C(C)C)c1 [Compound 23, (S)-3-(3-(1-(5-fluoro-3-methylbenzofuran-2-yl)-2-methylpropyl)ureido)-N-methylbenzamide] | 250 to 500 | – | 1000 to 5000
15 | Cc1c([C@@H](NC(=O)Nc2ccc(S(C)(=O)=O)cc2)C2CC2)oc2ccc(F)cc12 [Compound 16, (S)-1-(cyclopropyl(5-fluoro-3-methylbenzofuran-2-yl)methyl)-3-(4-(methylsulfonyl)phenyl)urea] | ≥ 500 | – | –
16 | Cc1c([C@@H](C)NC(=O)Nc2ccc(C(N)=O)cc2)oc2ccc(F)cc12 [Compound 4, (R)-4-(3-(1-(5-fluoro-3-methylbenzofuran-2-yl)ethyl)ureido)benzamide] | ≥ 500 | – | –
17 | COC(=O)N1CCC(NC(=O)NC(c2oc3ccc(F)cc3c2C)C(C)C)CC1 (single isomer, unassigned) [Compound 36] | ≥ 500 | – | > 5000

Row | SMILES | Kd [1] [nM] | IC50 [2, 3] [nM] | IC50 [2, 4] [nM]
18 | Cc1c([C@@H](NC(=O)Nc2ccc(N)nc2)C(C)C)oc2ccc(F)cc12 [Compound 38, (S)-1-(6-aminopyridin-3-yl)-3-(1-(5-fluoro-3-methylbenzofuran-2-yl)-2-methylpropyl)urea] | 100 to 250 | – | < 1000
19 | Cc1c([C@@H](NC(=O)Nc2cnc(N)nc2)C(C)C)oc2c(F)cc(F)cc12 [Compound 75, (S)-1-(2-aminopyrimidin-5-yl)-3-(1-(5,7-difluoro-3-methylbenzofuran-2-yl)-2-methylpropyl)urea] | < 100 | – | < 1000
20 | Cc1c([C@@H](NC(=O)Nc2cncc(C(=O)O)c2)C(C)C)oc2ccc(F)cc12 [Compound 62, (S)-5-(3-(1-(5-fluoro-3-methylbenzofuran-2-yl)-2-methylpropyl)ureido)nicotinic acid] | < 100 | – | > 5000
21 | Cc1c([C@@H](NC(=O)N[C@@H]2CCC[C@@H](C(N)=O)C2)C(C)C)oc2ccc(F)cc12 (single isomer, unassigned) [Compound 32] | 100 to 250 | – | > 5000
22 | Cc1c([C@@H](NC(=O)N[C@H]2CC[C@H](O)CC2)C(C)C)oc2ccc(F)cc12 [Compound 6, 1-((S)-1-(5-fluoro-3-methylbenzofuran-2-yl)-2-methylpropyl)-3-((1r,4S)-4-hydroxycyclohexyl)urea] | 250 to 500 | – | –
23 | Cc1c([C@@H](NC(=O)Nc2ccc(C(N)=O)cc2)C(C)C)oc2ccc(F)cc12 (single isomer, unassigned) [Compound 21] | 100 to 250 | – | –
24 | Cc1c([C@@H](NC(=O)Nc2cncc(C#N)c2)C2CC2)oc2ccc(F)cc12 [Compound 46, (S)-1-(5-cyanopyridin-3-yl)-3-(cyclopropyl(5-fluoro-3-methylbenzofuran-2-yl)methyl)urea] | ≥ 500 | – | –
25 | CNS(=O)(=O)c1ccc(NC(=O)NC(C)c2oc3ccc(F)cc3c2C)cc1 (single isomer, unassigned) [Compound 14] | ≥ 500 | – | –
26 | Cc1c([C@@H](NC(=O)Nc2cccc(S(C)(=N)=O)c2)C(C)C)oc2ccc(F)cc12 (stereo partly drawn) [Compound 28, 1-((S)-1-(5-fluoro-3-methylbenzofuran-2-yl)-2-methylpropyl)-3-(3-(S-methylsulfonimidoyl)phenyl)urea] | 100 to 250 | – | –
27 | Cc1c([C@@H](NC(=O)Nc2ccc(S(C)(=O)=O)cc2)C(C)C)oc2ccccc12 [Compound 9, (S)-1-(2-methyl-1-(3-methylbenzofuran-2-yl)propyl)-3-(4-(methylsulfonyl)phenyl)urea] | 250 to 500 | – | –
28 | Cc1c(C(NC(=O)Nc2ccc(S(C)(=O)=O)cc2)C(C)C)oc2ccc(F)cc12 (single isomer, unassigned) [Compound 11] | 100 to 250 | – | –
29 | Cc1c([C@@H](NC(=O)N[C@H]2CC[C@H](O)CC2)C(C)C)oc2cccc(F)c12 [Compound 7, 1-((S)-1-(4-fluoro-3-methylbenzofuran-2-yl)-2-methylpropyl)-3-((1r, 4S)-4-hydroxycyclohexyl)urea] | ≥ 500 | – | –
30 | Cc1c(C(NC(=O)Nc2cnc(N)nc2)C(F)(F)F)oc2c(C)cc(F)cc12 (single isomer, unassigned) [Compound 213, 1-(2-aminopyrimidin-5-yl)-3-[2,2,2-trifluoro-1-(5-fluoro-3,7-dimethyl-1-benzofuran-2-yl)ethyl]urea] | – | > 5000 | –
31 | Cc1c(C(NC(=O)Nc2cnc(N)nc2)C(F)(F)F)oc2c(Cl)cc(F)cc12 (racemic) [Compound 178, 1-(2-aminopyrimidin-5-yl)-3-[1-(7-chloro-5-fluoro-3-methyl-1-benzofuran-2-yl)-2,2,2-trifluoroethyl] urea] | – | < 1000 | –
32 | Cc1c(C(NC(=O)Nc2ccc(N)nc2)C(F)(F)F)oc2c(F)cc(F)cc12 (centres unmarked) [Compound 182] | – | < 1000 | –
33 | Cc1c(C(NC(=O)Nc2ccc(N3CC(O)C3)nc2)C(F)(F)F)oc2c(F)cc(F)cc12 (racemic) [Compound 179, 3-[1-(5,7-difluoro-3-methyl-1-benzofuran-2-yl)-2,2,2-trifluoroethyl]-1-[6-(3-hydroxyazetidin-1-yl)pyridin-3-yl]urea] | – | > 5000 | –
34 | Cc1c([C@@H](NC(=O)N[C@H]2CC[C@H](C(N)=O)CC2)C(C)C)oc2ccc(F)cc12 (relative stereo) [Compound 42, (1R,4r)-4-(3-((R*)-1-(5-fluoro-3-methylbenzofuran-2-yl)-2-methylpropyl)ureido)cyclohexane-1-carboxamide] | ≥ 500 | – | –
